# Values of other authors, collected in patent US9169245B2, “Inhibitors of PDE4 enzyme and antagonists of muscarinic M3 receptor” (CHIESI FARMACEUTICI S.p.A., priority 2012, dated 2015).
# Assays:
# [1] = patients with severe disease, frequent exacerbations and mucus hypersecretion
# [2] = COPD patients, oral, given over 4 weeks
structure (smiles),measurement,setting,value
O=C(Nc1c(Cl)cncc1Cl)c1ccc(OC(F)F)c(OCC2CC2)c1 [roflumilast],improvement of FEV 1,[1],approximately 50 ml
same,reduction of exacerbation,[1],about 15%
same,reduction of the numbers of neutrophils in sputum,[2],36%
